# ± gives the expanded uncertainty stated by the source.
# Assay: not given
# Settings: 313.15 K; 101.33 kPa; Liquid; Vibrating tube method
row,mass density,SMILES
1,1092.3 ± 2.5 kg/m3,"CCCCCCCCn1cc[n+](C)c1C.F[B-](F)(F)F [1-octyl-2,3-dimethylimidazolium tetrafluoroborate]"

# Same assay, conditions: 323.15 K; 101.33 kPa; Liquid; Vibrating tube method
row,mass density,SMILES
1,1086 ± 2.5 kg/m3,"CCCCCCCCn1cc[n+](C)c1C.F[B-](F)(F)F [1-octyl-2,3-dimethylimidazolium tetrafluoroborate]"

# Same assay, conditions: 333.15 K; 101.33 kPa; Liquid; Vibrating tube method
row,mass density,SMILES
1,1079.7 ± 2.5 kg/m3,"CCCCCCCCn1cc[n+](C)c1C.F[B-](F)(F)F [1-octyl-2,3-dimethylimidazolium tetrafluoroborate]"

# Same assay, conditions: 343.15 K; 101.33 kPa; Liquid; Vibrating tube method
row,mass density,SMILES
1,1073.3 ± 2.5 kg/m3,"CCCCCCCCn1cc[n+](C)c1C.F[B-](F)(F)F [1-octyl-2,3-dimethylimidazolium tetrafluoroborate]"

# Same assay, conditions: 353.15 K; 101.33 kPa; Liquid; Vibrating tube method
row,mass density,SMILES
1,1067 ± 2.5 kg/m3,"CCCCCCCCn1cc[n+](C)c1C.F[B-](F)(F)F [1-octyl-2,3-dimethylimidazolium tetrafluoroborate]"

# Assay: activity coefficient (dimensionless); of the first substance listed, at infinite dilution; xn = mol fraction of the nth substance listed
# Settings: 313.15 K; 101.33 kPa; Liquid; Chromatography; x1 = 0
row,activity coefficient,SMILES
1,15.8 ± 1.7,CC1CCCCC1 [methylcyclohexane] + CCCCCCCCn1cc[n+](C)c1C.F[B-](F)(F)F
2,15.8 ± 1.7,CCCCC [pentane] + CCCCCCCCn1cc[n+](C)c1C.F[B-](F)(F)F
3,2.66 ± 0.28,CC(C)CO [2-methyl-1-propanol] + CCCCCCCCn1cc[n+](C)c1C.F[B-](F)(F)F
4,2.04 ± 0.21,c1ccccc1 [benzene] + CCCCCCCCn1cc[n+](C)c1C.F[B-](F)(F)F
5,42.2 ± 4.4,CCCCCCCCC [nonane] + CCCCCCCCn1cc[n+](C)c1C.F[B-](F)(F)F
6,1.08 ± 0.11,ClCCl [dichloromethane] + CCCCCCCCn1cc[n+](C)c1C.F[B-](F)(F)F
7,8.2 ± 0.86,C1=CCCCC1 [cyclohexene] + CCCCCCCCn1cc[n+](C)c1C.F[B-](F)(F)F
8,4.36 ± 0.46,CCc1ccccc1 [ethylbenzene] + CCCCCCCCn1cc[n+](C)c1C.F[B-](F)(F)F
9,2.12 ± 0.22,CCO [ethanol] + CCCCCCCCn1cc[n+](C)c1C.F[B-](F)(F)F
10,12.8 ± 1.4,C1CCCCC1 [cyclohexane] + CCCCCCCCn1cc[n+](C)c1C.F[B-](F)(F)F
11,29.6 ± 3.1,"CC(C)CC(C)(C)C [2,2,4-trimethylpentane] + CCCCCCCCn1cc[n+](C)c1C.F[B-](F)(F)F"
12,2.93 ± 0.31,CCC(C)O (stereo not given) [butan-2-ol] + CCCCCCCCn1cc[n+](C)c1C.F[B-](F)(F)F
13,1.67 ± 0.17,"C1COCCO1 [1,4-dioxane] + CCCCCCCCn1cc[n+](C)c1C.F[B-](F)(F)F"
14,1.57 ± 0.16,CO [methanol] + CCCCCCCCn1cc[n+](C)c1C.F[B-](F)(F)F
15,25.5 ± 2.7,CCCCCCC [heptane] + CCCCCCCCn1cc[n+](C)c1C.F[B-](F)(F)F
16,20 ± 2.1,CCCCCC [hexane] + CCCCCCCCn1cc[n+](C)c1C.F[B-](F)(F)F
17,2.79 ± 0.29,CCCCO [butan-1-ol] + CCCCCCCCn1cc[n+](C)c1C.F[B-](F)(F)F
18,33 ± 3.5,CCCCCCCC [octane] + CCCCCCCCn1cc[n+](C)c1C.F[B-](F)(F)F
19,2.5 ± 0.26,CC(C)O [propan-2-ol] + CCCCCCCCn1cc[n+](C)c1C.F[B-](F)(F)F
20,1.04 ± 0.11,ClC(Cl)Cl [trichloromethane] + CCCCCCCCn1cc[n+](C)c1C.F[B-](F)(F)F
21,2.91 ± 0.31,CCOC(C)=O [ethyl acetate] + CCCCCCCCn1cc[n+](C)c1C.F[B-](F)(F)F
22,1.01 ± 0.1,CC#N [acetonitrile] + CCCCCCCCn1cc[n+](C)c1C.F[B-](F)(F)F
23,2.56 ± 0.27,CCCO [propan-1-ol] + CCCCCCCCn1cc[n+](C)c1C.F[B-](F)(F)F
24,2.06 ± 0.22,C1CCOC1 [tetrahydrofuran] + CCCCCCCCn1cc[n+](C)c1C.F[B-](F)(F)F
25,55.2 ± 5.8,CCCCCCCCCC [decane] + CCCCCCCCn1cc[n+](C)c1C.F[B-](F)(F)F

row,SMILES,activity coefficient
1,ClC(Cl)(Cl)Cl [tetrachloromethane] + CCCCCCCCn1cc[n+](C)c1C.F[B-](F)(F)F,4.11 ± 0.43
2,"Cc1ccc(C)cc1 [1,4-dimethylbenzene] + CCCCCCCCn1cc[n+](C)c1C.F[B-](F)(F)F",4.06 ± 0.43
3,CC(C)=O [acetone] + CCCCCCCCn1cc[n+](C)c1C.F[B-](F)(F)F,1.38 ± 0.14
4,"Cc1cccc(C)c1 [1,3-dimethylbenzene] + CCCCCCCCn1cc[n+](C)c1C.F[B-](F)(F)F",4.19 ± 0.44
5,"Cc1ccccc1C [1,2-dimethylbenzene] + CCCCCCCCn1cc[n+](C)c1C.F[B-](F)(F)F",3.5 ± 0.37
6,Cc1ccccc1 [toluene] + CCCCCCCCn1cc[n+](C)c1C.F[B-](F)(F)F,2.84 ± 0.3

# Same assay, conditions: 323.15 K; 101.33 kPa; Liquid; Chromatography; x1 = 0
row,activity coefficient,SMILES
1,15.5 ± 1.6,CC1CCCCC1 [methylcyclohexane] + CCCCCCCCn1cc[n+](C)c1C.F[B-](F)(F)F
2,15.3 ± 1.6,CCCCC [pentane] + CCCCCCCCn1cc[n+](C)c1C.F[B-](F)(F)F
3,2.54 ± 0.27,CC(C)CO [2-methyl-1-propanol] + CCCCCCCCn1cc[n+](C)c1C.F[B-](F)(F)F
4,2.07 ± 0.22,c1ccccc1 [benzene] + CCCCCCCCn1cc[n+](C)c1C.F[B-](F)(F)F
5,41.1 ± 4.3,CCCCCCCCC [nonane] + CCCCCCCCn1cc[n+](C)c1C.F[B-](F)(F)F
6,1.09 ± 0.11,ClCCl [dichloromethane] + CCCCCCCCn1cc[n+](C)c1C.F[B-](F)(F)F
7,8.01 ± 0.84,C1=CCCCC1 [cyclohexene] + CCCCCCCCn1cc[n+](C)c1C.F[B-](F)(F)F
8,4.42 ± 0.46,CCc1ccccc1 [ethylbenzene] + CCCCCCCCn1cc[n+](C)c1C.F[B-](F)(F)F
9,1.96 ± 0.21,CCO [ethanol] + CCCCCCCCn1cc[n+](C)c1C.F[B-](F)(F)F
10,12.5 ± 1.3,C1CCCCC1 [cyclohexane] + CCCCCCCCn1cc[n+](C)c1C.F[B-](F)(F)F
11,28.8 ± 3,"CC(C)CC(C)(C)C [2,2,4-trimethylpentane] + CCCCCCCCn1cc[n+](C)c1C.F[B-](F)(F)F"
12,2.78 ± 0.29,CCC(C)O (stereo not given) [butan-2-ol] + CCCCCCCCn1cc[n+](C)c1C.F[B-](F)(F)F
13,1.72 ± 0.18,"C1COCCO1 [1,4-dioxane] + CCCCCCCCn1cc[n+](C)c1C.F[B-](F)(F)F"
14,1.47 ± 0.15,CO [methanol] + CCCCCCCCn1cc[n+](C)c1C.F[B-](F)(F)F
15,25.1 ± 2.6,CCCCCCC [heptane] + CCCCCCCCn1cc[n+](C)c1C.F[B-](F)(F)F
16,19.8 ± 2.1,CCCCCC [hexane] + CCCCCCCCn1cc[n+](C)c1C.F[B-](F)(F)F
17,2.64 ± 0.28,CCCCO [butan-1-ol] + CCCCCCCCn1cc[n+](C)c1C.F[B-](F)(F)F
18,32.5 ± 3.4,CCCCCCCC [octane] + CCCCCCCCn1cc[n+](C)c1C.F[B-](F)(F)F
19,2.35 ± 0.25,CC(C)O [propan-2-ol] + CCCCCCCCn1cc[n+](C)c1C.F[B-](F)(F)F
20,1.06 ± 0.11,ClC(Cl)Cl [trichloromethane] + CCCCCCCCn1cc[n+](C)c1C.F[B-](F)(F)F
21,2.96 ± 0.31,CCOC(C)=O [ethyl acetate] + CCCCCCCCn1cc[n+](C)c1C.F[B-](F)(F)F
22,1.02 ± 0.1,CC#N [acetonitrile] + CCCCCCCCn1cc[n+](C)c1C.F[B-](F)(F)F
23,2.39 ± 0.25,CCCO [propan-1-ol] + CCCCCCCCn1cc[n+](C)c1C.F[B-](F)(F)F
24,2.1 ± 0.22,C1CCOC1 [tetrahydrofuran] + CCCCCCCCn1cc[n+](C)c1C.F[B-](F)(F)F
25,54.2 ± 5.7,CCCCCCCCCC [decane] + CCCCCCCCn1cc[n+](C)c1C.F[B-](F)(F)F

row,SMILES,activity coefficient
1,ClC(Cl)(Cl)Cl [tetrachloromethane] + CCCCCCCCn1cc[n+](C)c1C.F[B-](F)(F)F,4.16 ± 0.44
2,"Cc1ccc(C)cc1 [1,4-dimethylbenzene] + CCCCCCCCn1cc[n+](C)c1C.F[B-](F)(F)F",4.12 ± 0.43
3,CC(C)=O [acetone] + CCCCCCCCn1cc[n+](C)c1C.F[B-](F)(F)F,1.4 ± 0.14
4,"Cc1cccc(C)c1 [1,3-dimethylbenzene] + CCCCCCCCn1cc[n+](C)c1C.F[B-](F)(F)F",4.24 ± 0.45
5,"Cc1ccccc1C [1,2-dimethylbenzene] + CCCCCCCCn1cc[n+](C)c1C.F[B-](F)(F)F",3.58 ± 0.38
6,Cc1ccccc1 [toluene] + CCCCCCCCn1cc[n+](C)c1C.F[B-](F)(F)F,2.89 ± 0.3

# Same assay, conditions: 333.15 K; 101.33 kPa; Liquid; Chromatography; x1 = 0
row,activity coefficient,SMILES
1,15.1 ± 1.6,CC1CCCCC1 [methylcyclohexane] + CCCCCCCCn1cc[n+](C)c1C.F[B-](F)(F)F
2,14.8 ± 1.6,CCCCC [pentane] + CCCCCCCCn1cc[n+](C)c1C.F[B-](F)(F)F
3,2.42 ± 0.25,CC(C)CO [2-methyl-1-propanol] + CCCCCCCCn1cc[n+](C)c1C.F[B-](F)(F)F
4,2.1 ± 0.22,c1ccccc1 [benzene] + CCCCCCCCn1cc[n+](C)c1C.F[B-](F)(F)F
5,39.6 ± 4.2,CCCCCCCCC [nonane] + CCCCCCCCn1cc[n+](C)c1C.F[B-](F)(F)F
6,1.1 ± 0.11,ClCCl [dichloromethane] + CCCCCCCCn1cc[n+](C)c1C.F[B-](F)(F)F
7,7.81 ± 0.82,C1=CCCCC1 [cyclohexene] + CCCCCCCCn1cc[n+](C)c1C.F[B-](F)(F)F
8,4.46 ± 0.47,CCc1ccccc1 [ethylbenzene] + CCCCCCCCn1cc[n+](C)c1C.F[B-](F)(F)F
9,1.82 ± 0.19,CCO [ethanol] + CCCCCCCCn1cc[n+](C)c1C.F[B-](F)(F)F
10,12.2 ± 1.3,C1CCCCC1 [cyclohexane] + CCCCCCCCn1cc[n+](C)c1C.F[B-](F)(F)F
11,27.9 ± 2.9,"CC(C)CC(C)(C)C [2,2,4-trimethylpentane] + CCCCCCCCn1cc[n+](C)c1C.F[B-](F)(F)F"
12,2.65 ± 0.28,CCC(C)O (stereo not given) [butan-2-ol] + CCCCCCCCn1cc[n+](C)c1C.F[B-](F)(F)F
13,1.77 ± 0.18,"C1COCCO1 [1,4-dioxane] + CCCCCCCCn1cc[n+](C)c1C.F[B-](F)(F)F"

# Source: the NIST ThermoML archive (doi:10.1016/j.jct.2018.09.003)
